Experimental data taken from patent EP1187837B1, “THIAZEPINE INHIBITORS OF HIV-1 INTEGRASE” (THE UNITED STATES GOVERNMENT as represented by THE …, priority 1999, dated 2000).
Where “and” joins values, the source holds several entries; their conditions need not be identical. Identical values can stand only once. Like-named read-outs stand apart in the source and are kept apart here.

Legend:
[1] = target: T1, purified human immunodeficiency virus type-1 integrase (HIV-1 IN) (Human immunodeficiency virus type 1 group M subtype B, UniProt P12497); test: Integrase assay: 3'-processing and strand transfer (3'-end joining), 32P-labeled oligonucleotide, gel/PhosphorImager, Mn2+ cofactor; details: purified IN 200 nM, 7.5 mM MnCl2, 30°C;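 further: enzyme at 200 nM preincubated with inhibitor 30 min at 30°C, then 20 nM labeled 21-mer DNA for 1 h, inhibition relative to enzyme without drug, background from DNA alone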
Excerpt: (§1) The HPLC purified oligonucleotides AE117 (5'-[sequence]-3'); AE118 (5'-[sequence]-3'); AE157 (5'-[sequence]-3'); AE146 (5'-[sequence]-3'); AE156 (5'-[sequence]-3'); RM22M (5'-[sequence]-3'); and RMAB2 (5'-[sequence]-3') were purchased from Midland Certified Reagent Company (Midland, TX). An expression system for the wild-type integrase and the IN^50-212 (F185K) were obtained from the Laboratory of Molecular Biology, NIDDK, NIH, Bethesda, MD.
(§2) To analyze the extent of 3'-processing and strand transfer using 5'-end labeled substrates, AE118 was 5'-end labeled using T4 polynucleotide kinase (Gibco BRL) and γ[^32P]-ATP (Dupont-NEN). […] The kinase was heat-inactivated and AE117 was added to the same final concentration. The mixture was heated at 95°C, allowed to cool slowly to room temperature, and run through a G-25 Sephadex quick spin column (Boehringer Mannheim, Indianapolis, IN) to separate annealed double-stranded oligonucleotide from unincorporated label.
(§3) To determine the extent of 3'-processing and strand transfer, integrase was preincubated at a final concentration of 200 nM with the inhibitor in a reaction buffer (50 mM NaCl, 1 mM HEPES, pH 7.5, 50 µM EDTA, 50 µM dithiothreitol, 10% glycerol (w/v), 7.5 mM MnCl2, 0.1 mg/ml bovine serum albumin, 10 mM 2-mercaptoethanol, 10% dimethyl sulfoxide, and 25 mM MOPS, pH 7.2) at 30°C for 30 minutes. Then, 20 nM of the 5'-end ^32P-labeled linear oligonucleotide substrate was added, and incubation was continued for an additional one hour. Reactions were quenched by the addition of an equal volume (16 µl) of loading dye (98% deionized formamide, 10 mM EDTA, 0.025% xylene cyanol and 0.025% bromophenol blue). An aliquot (5 µl) was electrophoresed on a denaturing 20% polyacrylamide gel (0.09 M tris-borate pH 8.3, 2 mM EDTA, 20% acrylamide, 8M urea).
(§4) Gels were dried, exposed in a PhosphorImager cassette, and analyzed using a Molecular Dynamics PhosphorImager (Sunnyvale, CA). Percent inhibition was calculated using the following equation: %I = 100 X [1-(D-C)/(N-C)] [formula] where C, N, and D are the fractions of 21-mer substrate converted to 19-mer (3'-processing product) or strand transfer products for DNA alone (C), DNA plus integrase (N), and integrase plus drug (D). All IC50 values were determined by plotting the drug concentration versus percent inhibition, and determining the concentration which produced 50% inhibition.

[2] = target: T1, purified human immunodeficiency virus type-1 integrase (HIV-1 IN); test: biochemical
Excerpt: as §1, §2, §3, §4

[3] = Cytotoxicity control in uninfected CEM cells (XTT formazan); format: cell-based; details: human, read-out: Cell data (µM) CC50: 50% cytotoxic concentration; for CC50 at 6 days: uninfected T4 lymphocytes (CEM cell line); for CC50 at 144 h: 6 days
Procedure: (§5) The anti-HIV drug testing was performed at NCI based on a protocol described by Weislow et al.^36 All compounds were dissolved in dimethyl sulfoxide and diluted 1:100 in cell culture medium. Exponentially growing T4 lymphocytes (CEM cell line) were added at 5000 cells per well. Frozen virus stock solutions were thawed immediately before use, suspended in complete medium to yield the desired multiplicity of infection (m. o. i. ≈ 0.1), and added to the microtiter wells, resulting in a 1:200 final dilution of the compound. Uninfected cells with the compound served as a toxicity control, and infected and uninfected cells without the compound served as basic controls.
(§6) Cultures were incubated at 37°C in a 5% CO2 atmosphere for 6 days. The tetrazolium salt, XTT was added to all wells, and cultures were incubated to allow formazan color development by viable cells. Individual wells were analyzed spectrophotometrically to quantitate formazan production, and in addition were viewed microscopically for detection of viable cells and confirmation of protective activity.

HIV-1 infected CEM cells = test: Anti-HIV assay in cultured CEM cells (NCI Antiviral Drug Screen, XTT formazan); format: cell-based
Procedure: as §5, §6

[4] = target: T1, purified human immunodeficiency virus type-1 integrase (HIV-1 IN)
Excerpt: as §1, §2, §3, §4

HIV-1 IN = target: T2, HIV-1 IN (Human immunodeficiency virus type 1 group M subtype B, UniProt P12497); test: Integrase assay with Mg+2 as cofactor; format: biochemical; details: compared with Mn+2
T2 construct: An expression system for the wild-type integrase; made in house
Procedure: A 21-mer oligonucleotide corresponding to the last 21 bases on the HIV-1 viral DNA in the U5 region of long terminal repeat (LTR) was radiolabeled with ^32P. This is shown in the Figs. 2 and 3 as a band corresponding to DNA alone. Integrase will cleave the last two bases of this DNA in the presence of Mn^+2 or Mg^+2 to give a 19-mer DNA substrate (lane 2) which runs faster on the gel and is indicated as 19-mer on the Figures. When an inhibitor is added this process is blocked, therefore the original 21-mer DNA would not be cut. When an inhibitor is added at various concentrations, percent inhibition at every concentration will be calculated by quantification of the intensity of each band using an Imagequant program.
The gels are run using polyacrylamide according to the standard procedures. Upon completion of electrophoresis run, the gels are dried and exposed to a phosphorimager cassette. The cassettes are analyzed by the phosphorimager, and the bands are shown on a computer screen. The intensity of each band is quantitated, plotted against concentrations of drugs, and the IC50 values are calculated from the graphs.

[5] = Integrase Assay IC50 (µM) 3'-Processing
[6] = Human immunodeficiency virus 1, CCRF-CEM, 144 h, HIV-1 infected CEM cells, 6 days, XTT, read-out: Cell data (µM) EC60: 50% effective concentration
[7] = read-out: Integrase Assay IC50 (µM) 3'-Processing
[8] = Human immunodeficiency virus 1, CCRF-CEM, 144 h, read-out: Cell data (µM) EC60: 50% effective concentration, HIV-1 infected CEM cells, 6 days, XTT

SMILES	IC50 [1, 5]	IC50 [2]	EC50 (HIV-1 infected CEM cells; [8]) [µM]	other results
CN(C)Cc1ccc2n1Cc1ccccc1SC2c1ccc(F)cc1 (centres unmarked) [Compound 30]	> 1000 µM	> 1000 µM		
CN1CCN(Cc2ccc3n2Cc2ccccc2SC3c2ccccc2)CC1 (racemic) [Compound 31, (±)-3-[(4-Methylpiperazin-1-yl)methyl]-11-phenyl-5H,11H-pyrrolo [2,1-c][1,4]benzothiazepine]	> 1000 µM	> 1000 µM		
O=C1Sc2ccc(Cl)cc2C(=O)N2CSCC12 (racemic) [Compound 6, (±)-7-Chloro-1,11a-dihydro-3H,5H,11H-thiazolo[4,3-c][1,4] benzothiazepine-5,11-dione]	158 µM and 111 µM	160 µM and 110 µM		CC50 at 6 days [3]: > 100 µM; EC50 (HIV-1 infected CEM cells; [6]): > 100 µM
O=C1c2ccccc2SC(O)(c2ccccc2)C2CCCN12 (racemic) [Compound 26, (±)-2,3,11,11a-Tetrahydro-11-hydroxy-11-phenyl-1H,5H-pyrrolo [2,1-c][1,4]benzothiazepin-5-one]	> 1000 µM	> 1000 µM		
COc1cc2c(cc1OC)C(=O)N1CCCC1C(=O)S2 (centres unmarked) [Compound 13]			> 200	IC50 [4]: > 1000 µM; IC50 [1, 7]: > 1000 µM
O=C1Sc2ccccc2C(=O)N2CCCCC12 (centres unmarked) [Compound 14]			> 200	
O=C1c2ccccc2SC(O)C2CCCN12 (centres unmarked) [Compound 25]			> 200	IC50 [4]: > 1000 µM; IC50 [1, 7]: > 1000 µM
O=C1Sc2cc3ccccc3cc2C(=O)N2CCSC12 (racemic) [Compound 19, (±)-2,3-Dihydro-5H-naphto[2,3-f]thiazolo[2,3-c][1,4]thiazepine-5,13(13aH)-dione]			60	inhibition of IN in the presence of Mg+2 (HIV-1 IN): active in the presence of Mg^+2 within the same concentration range as in Mn^+2
O=C1Sc2ccccc2C(=O)N2COCC12 (racemic) [Compound 12, (±)-1,11a-Dihydro-3H,5H,11H-oxazolo[4,3-c][1,4]benzothiazepine-5,11-dione]	> 333 µM	> 333 µM		
O=C1Sc2ccccc2C(=O)N2CSCC12 (racemic) [Compound 5]			> 200	
O=C1Sc2ccccc2Cn2cccc21 [Compound 28]			146	CC50 at 144 h [3]: > 200 µM
CCOC(=O)C1Sc2ccccc2Cn2cccc21 (centres unmarked) [Compound 29]	> 1000 µM	> 1000 µM		
O=C1Sc2ccc(Cl)cc2C(=O)N2CCSC12 (racemic) [Compound 2, (±)-7-Chloro-2,3-dihydro-5H-thiazolo[2,3-c][1,4]benzothiazepine-5,11 (11aH)-dione]	151 µM and 105 µM	120 µM and 60 µM		CC50 at 6 days [3]: > 50 µM; EC50 (HIV-1 infected CEM cells; [6]): > 50 µM
CN1CCN([C@@H]2Sc3ccccc3C(=O)N3CCC[C@@H]23)CC1 (racemic) [Compound 27, (±)-cis-2,3,11,11a-Tetrahydro-11-(4-methylpiperazin-1-yl)-1H,5H-pyrrolo[2,1-c][1,4]benzothiazepin-5-one]	> 1000 µM	> 1000 µM		CC50 at 6 days [3]: > 125 µM; EC50 (HIV-1 infected CEM cells; [6]): > 125 µM
O=C1Sc2cc([N+](=O)[O-])ccc2C(=O)N2CSCC12 (racemic) [Compound 9, (±)-1,11a-Dihydro-8-nitro-3H,5H,11H-thiazolo[4,3-c][1,4] benzothiazepine-5,11-dione]	90 ± 27 µM	100 ± 36 µM		CC50 at 6 days [3]: > 50 µM; EC50 (HIV-1 infected CEM cells; [6]): > 50 µM
COc1cc2c(cc1OC)C(=O)N1CCCC1CS2 (centres unmarked) [Compound 24]			> 200	IC50 [4]: > 1000 µM; IC50 [1, 7]: > 1000 µM
Cc1ccc2c(c1)C(=O)N1CC[S@@+]([O-])[C@@H]1C(=O)S2 (racemic) [Compound 15, (±)-cis-2,3-Dihydro-7-methyl-5H-thiazolo[2,3-c][1,4]benzothiazepme-5,11 (11aH)-dione 1-Oxide]			> 100	CC50 at 144 h [3]: > 100 µM
O=C1Sc2ccccc2C(=O)N2CCSC12 (centres unmarked) [Compound 1]			107 ± 26	inhibition of IN in the presence of Mg+2 (HIV-1 IN): active in the presence of Mg^+2 within the same concentration range as in Mn^+2; EC50 (HIV-1 infected CEM cells; HIV-1 infected CEM cells, 6 days, XTT, read-out: Cell data (µM) EC60: 50% effective concentration): 107 µM
O=C1Sc2ccc(Br)cc2C(=O)N2CCSC12 (racemic) [Compound 3, (±)-7-Bromo-2,3-dihydro-5H-thiazolo[2,3-c][1,4]benzothiazepine-5,11 (11aH)-dione]	58 ± 15 µM	48 ± 18 µM		
COc1ccc2c(c1)C(=O)N1CSCC1C(=O)S2 (racemic) [Compound 10, (±)-1,11a-dihydro-7-methoxy-3H,5H,11H-thiazolo[4,3-c][1,4]benzothiazepine-5,11-dione]	155 µM and 275 µM	155 µM and 245 µM		CC50 at 6 days [3]: > 200 µM; EC50 (HIV-1 infected CEM cells; [6]): > 200 µM
O=C1c2ccccc2SCC2CSC(c3ccccc3)N12 (centres unmarked) [Compound 23]	111 µM	288 µM		
Cc1ccc2c(c1)C(=O)N1CSCC1C(=O)S2 (racemic) [Compound 8, (±)-1,11a-Dihydro-7-methyl-3H,5H,11H-thiazolo[4,3-c][1,4] benzothiazepine-5,11-dione]	52 µM	63 µM		CC50 at 6 days [3]: 35 µM
COC1Sc2ccccc2C(=O)N2CCCC12 (centres unmarked) [Compound 22]	> 1000 µM	> 1000 µM	> 200	CC50 at 144 h [3]: > 200 µM
CC(=O)OC1Sc2ccccc2C(=O)N2CCCC12 (centres unmarked) [Compound 21]			> 200	IC50 [4]: > 1000 µM; IC50 [1, 7]: > 1000 µM
COc1cc2c(cc1OC)C(=O)N1CSCC1C(=O)S2 (centres unmarked) [Compound 11]			> 50	
O=C1Sc2ccc(Br)cc2C(=O)N2CSCC12 (racemic) [Compound 7, (±)-7-Bromo-1,11a-dihydro-3H,5H,11H-thiazolo[4,3-c][1,4] benzothiazepine-5,11-dione]	87 ± 24 µM	74 ± 32 µM		CC50 at 6 days [3]: > 200 µM; EC50 (HIV-1 infected CEM cells; [6]): > 200 µM
O=C1Sc2cc3ccccc3cc2C(=O)N2CSCC12 (racemic) [Compound 20, (±)-1,13a-Dihydro-3H,5H,11H-naphto[2,3-f]thiazolo[4,3-c][1,4] thiazepine-5,13-dione]			279 to 286	inhibition of IN in the presence of Mg+2 (HIV-1 IN): active in the presence of Mg^+2 within the same concentration range as in Mn^+2
